“And” between values parts separate entries of the source, which are not always exact repeats. Equal values may be shown once. “Also recorded” adds a separate entry of the source.
Legend:
[1] = system: Hbb^th3/+ mouse model of β-thalassemia intermedia; conditions: in vivo
Procedure: (§1) The aim of this study was to test whether the concurrent use of the iron chelator DFX administered once daily (QD) alone at 30 mg/kg or in combination with Fpn127 administered QD at 120 mg/kg for 3 weeks is causing any therapeutic interactions in a mouse model of β-thalassemia intermedia (Hbb^th3/+; B6; 129P—b1tm1Unc-b2tm1Unc/J, Jackson Laboratories, Stock Number: 002683).
(§2) Animals were euthanized 1 h after the last dose of DFX on study day 23 (dosing day 17).
(§3) On the final study day (day 23), spleen, liver, and kidneys were collected and snap frozen in liquid nitrogen for further analysis, as outlined below. Wet weight of spleen, liver, and kidneys were recorded.
(§4) Content of total Fe was determined in pieces of spleens, livers, and kidneys by ICP-OES in the Analytical Development group of Vifor (International) Ltd., St. Gallen.
(§5) Individual wet weights of organs were recorded. Individual values of total Fe were measured in livers, spleens, and kidneys. Individual values of total Fe content and concentration were calculated. Mean±SD of total Fe concentration and content in livers, spleens, and kidneys was calculated for each group.

[2] = system: Hbb^th3/+ mouse model of β-thalassemia intermedia; assay: Combination study: organ weights and tissue iron (ICP-OES) in liver, spleen, kidney; conditions: for effect on relative spleen weight in th3/+ animals: end of study d23 (FIG. 4); for relative spleen weight: percent of body weight; for relative spleen weight / kidney Fe conc. / liver Fe conc. / spleen Fe conc.: th3/+ mice, DFX 30 mg/kg QD, Fpn127 120 mg/kg QD p.o., end of study (day 23), mean
Procedure: as §1, §2, §3, §4, §5

[3] = system: Hbb^th3/+ mouse model of β-thalassemia intermedia; assay: Combination study: complete blood counts (ProCyte Dx); assay type: in vivo; conditions: for HCT / Leukocytes / Lymphocytes / MCH / MCHC / MCV / Neutrophils / RBC / RDW / RET / Ret-He: th3/+ mice, DFX 30 mg/kg QD, Fpn127 120 mg/kg QD p.o., whole blood day 23, all animals, mean
Procedure: Complete blood counts were performed on fresh EDTA-blood on an automated blood cell analyzer (ProCyte Dx®, IDEXX Laboratories) in-house.

[4] = system: C57BL/6 WT mice; assay: Serum iron in C57BL/6 WT mice (previous study); assay type: in vivo, mouse; conditions: C57BL/6 WT mice dosed with 120 mg/kg for 20 h
[5] = system: Hbb^th3/+ mice; assay: ROS levels in mature RBCs of Hbb^th3/+ mice, oral dosing 60 mg/kg twice daily, no BT; assay type: in vivo, mouse
[6] = system: Hbb^th3/+ mice; assay: NTBI in plasma after blood transfusion (BT) in Hbb^th3/+ mice (Fe-NTA colorimetric assay); assay type: in vivo, mouse; conditions: single oral dose 120 mg/kg 30 min before BT, 3 h post BT (FIG. 13)
Procedure: In order to establish the kinetics of NTBI generation in Hbb th3/+ mice (B6.129P2-Hbb-b1tm1Unc Hbb-b2tm1Unc/J, #002683) following blood transfusion (BT) pilot experiments were performed. The wild-type (We) littermates of Hbbth3/+ were used as blood donors for transfusions. Peripheral blood was collected from terminally anesthetized WT mice via retro-orbital route from 3-5 female mice and seven parts of blood were mixed with one part of 14% citrate-phosphate-dextrose adenine and stored at 4° C. until the transfusion (24 h or 15 days). The donor blood was pre-warmed to 37° C. prior to the transfusion. […]
NTBI was measured in murine plasma samples by a Fe-Nitrilotriacetate (NTA)-based assay, adapted from a protocol published by Gosriwatana I et al. 1999 (Quantification of non-transferrin-bound iron in the presence of unsaturated transferrin. Gosriwatana I, Loreal O. Lu S, Brissot P, Porter J, Hider R C. Quantification of non-transferrin-bound iron in the presence of unsaturated transferrin. Anal Biochem. 1999 Sep. 10; 273(2):212-20. First, a solution of 800 mM Nitrilotriacetate acid (NTA) trisodium (Sigma, 72565) and a solution of 800 mM NTA disodium (Sigma, N0128) were prepared and then mixed together to obtain a solution at pH 7.0. […] After 30 minutes of incubation at room temperature, samples were measured in a plate reader (Biotec) at 537 nm.

[7] = Half-life of orally administered Fpn127 in rodents; conditions: in vivo, po
[8] = system: rats; assay: Serum iron after a single oral dose in rats; assay type: in vivo, rat; conditions: single oral dose of 100 mg/kg in rats

## O=C(O)c1ccc(-n2nc(-c3ccccc3O)nc2-c2ccccc2O)cc1 [DFX, deferasirox, reference compound]
[1]
  effect on kidney weight vs vehicle-treated Hbbth3/+ mice: no effect on kidney weight
  effect on liver weight vs vehicle-treated Hbbth3/+ mice: no effect on liver weight
[2]
  effect on relative spleen weight in th3/+ animals: no effect
[2]; all animals
  relative spleen weight: 1.98±0.26% and 1.98%
  kidney Fe conc.: 125.1 ± 22.2 µg/g and 125.1 µg/g
  liver Fe conc.: 196.3 ± 62.5 µg/g and 196.3 µg/g
  spleen Fe conc.: 1553.0 ± 144.7 µg/g and 1553.0 µg/g
[2]; females
  relative spleen weight: 2.17%
  kidney Fe conc.: 126.6 µg/g
  liver Fe conc.: 241.2 µg/g
  spleen Fe conc.: 1511.0 µg/g
[2]; males
  relative spleen weight: 1.79%
  kidney Fe conc.: 123.6 µg/g
  liver Fe conc.: 151.5 µg/g
  spleen Fe conc.: 1602.0 µg/g
[3]; Hbb^th3/+ mice, day 23, potential inflammatory response
  neutrophil counts: significantly increased
[3]
  HCT: 27.4%
  Leukocytes: 8.9 10E3/μL
  Lymphocytes: 7.4 10E3/μL
  MCH: 10.4 pg
  MCHC: 25.4 g/dL
  MCV: 41.1 fL
  Neutrophils: 1.2 10E3/μL
  RBC: 7.7 10E6/μL
  RDW: 47.0%
  RET: 1760 10E3/μL
  Ret-He: 12.8 pg

## O=C(NCc1ncccc1F)c1coc(CCNCCc2nc3ccccc3[nH]2)n1 [Fpn127]
[4]
  serum iron in WT mice: restored to the baseline levels
[5]; 15 days of oral dosing 60 mg/kg twice daily (FIG. 2B), 60 mg/kg
  ROS levels in RBCs: decreased ROS levels; also recorded: further decreased
[5]; day 8 of oral dosing 60 mg/kg twice daily (FIG. 2A)
  ROS levels in RBCs: decreased ROS levels
[1]
  effect on kidney weight vs vehicle-treated Hbbth3/+ mice: no effect on kidney weight
  effect on liver weight vs vehicle-treated Hbbth3/+ mice: no effect on liver weight
[6]
  NTBI in plasma after blood transfusion: prevents release; also recorded: prevented the increase of NTBI
[2]; end of study (FIG. 3)
  effect on total liver iron concentration vs vehicle-treated th3/+ mice: no effect on liver iron concentration
[2]; end of study (FIG. 4)
  effect on total spleen iron concentration vs vehicle-treated th3/+ mice: significantly increased
[2]; end of study (FIG. 5)
  effect on total kidney iron concentration vs vehicle-treated Hbbth3/+ mice: significantly reduced
[2]
  effect on relative spleen weight in th3/+ animals: significantly reduced
[2]; all animals
  relative spleen weight: 0.99±0.18% and 0.99%
  kidney Fe conc.: 126.7 ± 23.6 µg/g and 126.7 µg/g
  liver Fe conc.: 332.2 ± 75.2 µg/g and 332.2 µg/g
  spleen Fe conc.: 2738.0 ± 300.8 µg/g and 2738.0 µg/g
[2]; females
  relative spleen weight: 1.12%
  kidney Fe conc.: 138.9 µg/g
  liver Fe conc.: 371.8 µg/g
  spleen Fe conc.: 2713.0 µg/g
[2]; males
  relative spleen weight: 0.86%
  kidney Fe conc.: 114.5 µg/g
  liver Fe conc.: 292.5 µg/g
  spleen Fe conc.: 2760.0 µg/g
[3]; Hbb^th3/+ mice, day 23 (FIG. 8), for DFX alone: total leukocyte and lymphocyte counts
  leukocyte, neutrophil and lymphocyte counts: reduced to levels similar to WT
[3]; Hbbth3/+ mice, day 23 (FIG. 7)
  RBC indices (RBC counts, hematocrit, RDW, reticulocyte counts): significantly improved
[3]
  HCT: 31.2%
  Leukocytes: 5.7 10E3/μL
  Lymphocytes: 5.0 10E3/μL
  MCH: 9.9 pg
  MCHC: 27.4 g/dL
  MCV: 36.4 fL
  Neutrophils: 0.3 10E3/μL
  RBC: 9.9 10E6/μL
  RDW: 39.1%
  RET: 1332 10E3/μL
  Ret-He: 11.8 pg
[7]
  half-life: ~2 h
[8]
  duration of reduction in serum iron: at least 8 h

From patent publication US12533348B2, “Ferroportin-inhibitors for the use in the treatment of transfusion-dependent beta-thalassemia (TDT)” (Vifor (International) AG, priority 2019, dated 2026)
